According to ChEMBL document CHEMBL1201862, “PubChem BioAssay data set” (2004):
Calls of active or inactive are those of the source.

Key:
Estrogen receptor = molecular target: T1, Estrogen receptor (Homo sapiens, UniProt P03372);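 further: potency for inhibiting coactivator peptide recruitment to the receptor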
T1 sequence (P03372 whole entry): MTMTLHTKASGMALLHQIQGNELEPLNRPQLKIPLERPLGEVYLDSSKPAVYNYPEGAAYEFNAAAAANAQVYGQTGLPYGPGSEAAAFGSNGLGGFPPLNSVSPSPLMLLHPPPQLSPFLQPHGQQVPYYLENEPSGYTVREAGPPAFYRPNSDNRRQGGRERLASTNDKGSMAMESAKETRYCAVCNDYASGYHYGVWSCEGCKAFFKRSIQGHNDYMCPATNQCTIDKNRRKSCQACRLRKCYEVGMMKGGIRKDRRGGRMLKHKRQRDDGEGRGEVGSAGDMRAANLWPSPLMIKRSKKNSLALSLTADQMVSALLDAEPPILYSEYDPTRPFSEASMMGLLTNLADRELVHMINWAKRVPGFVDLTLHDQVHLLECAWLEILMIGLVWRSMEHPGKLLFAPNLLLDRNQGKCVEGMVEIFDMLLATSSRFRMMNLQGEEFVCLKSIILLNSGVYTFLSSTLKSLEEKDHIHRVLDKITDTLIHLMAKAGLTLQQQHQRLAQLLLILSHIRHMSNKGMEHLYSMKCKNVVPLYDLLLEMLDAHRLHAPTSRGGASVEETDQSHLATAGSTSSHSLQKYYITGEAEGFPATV

[1] = viability of PTEN-deleted HCT116 cells – cell-based, HCT116 PTEN knockout, dose response (AID 1047); type: functional;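 further: HCT116 colon tumor cells with PTEN knocked out; cells exposed to compound for 60 hours before readout; potency for loss of cell viability measured by luminescence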
[2] = viability of HCT116 lacking mutant beta-catenin – cell-based, human colon tumor, dose response (AID 1045); type: functional;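 further: HCT116 colon tumor cells with beta catenin knocked out; cells exposed to compound for 60 hours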
[3] = viability inhibitors of stage V gametocytes – luminescence, dose response (AID 1117278); type: functional, cell-based;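 further: gametocytes exposed to compound for 24 hours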
[4] = viability loss in human Jurkat cells – cell-based, luminescence, cytotoxicity control for P. falciparum gametocyte viability project, dose response (AID 1117277); type: functional;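 further: potency reflects loss of cellular ATP meaning fewer viable cells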
[5] = growth inhibition of yeast DHODH-expressing 3D7 parasites – SYBR Green, dry powder samples, dose response (AID 1159570); type: functional, cell-based;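 further: parasite growth measured after 72 hours of compound exposure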
[6] = toxicity to human HepG2 hepatoma cells – cell-based, plate reader, dry powder samples, cytotoxicity control, dose response (AID 1159569); type: functional;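 further: inhibitor potency with signal falling toward the positive control level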
[7] = P. falciparum Dd2 growth inhibitors, dose response, SYBR Green, cherry-picked samples (AID 1159567); type: functional, cell-based
[8] = Dd2 malaria parasite growth inhibition potency – SYBR Green, dry powder samples, dose response (AID 1159566); type: functional, cell-based;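 further: potency for growth inhibition with lower SYBR green DNA signal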
[9] = growth inhibition of PfATP4-mutant resistant parasites – NITD609-resistant line, SYBR Green, dry powder, dose response (AID 1159571); type: functional, cell-based;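 further: parasites synchronized at ring stage by sorbitol before testing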
fMet-Leu-Phe receptor = molecular target: T2, fMet-Leu-Phe receptor (Homo sapiens, UniProt P21462); experiment: formyl peptide receptor binders – dose response (AID 519); type: functional
T2 sequence (P21462 whole entry): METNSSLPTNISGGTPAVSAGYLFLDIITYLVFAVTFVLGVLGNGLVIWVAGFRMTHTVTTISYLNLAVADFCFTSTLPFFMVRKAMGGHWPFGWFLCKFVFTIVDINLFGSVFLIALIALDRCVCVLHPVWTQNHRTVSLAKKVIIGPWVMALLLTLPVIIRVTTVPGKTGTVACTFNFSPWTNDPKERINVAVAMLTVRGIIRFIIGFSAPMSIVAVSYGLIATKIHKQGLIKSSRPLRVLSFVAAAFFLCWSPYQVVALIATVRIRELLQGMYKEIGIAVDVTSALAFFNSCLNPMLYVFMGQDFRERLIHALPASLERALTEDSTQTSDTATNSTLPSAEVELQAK

Cytochrome P450 2C9 = Cytochrome P450 2C9 (Homo sapiens, UniProt P11712)
Cytochrome P450 2C9, sequence (P11712 whole entry): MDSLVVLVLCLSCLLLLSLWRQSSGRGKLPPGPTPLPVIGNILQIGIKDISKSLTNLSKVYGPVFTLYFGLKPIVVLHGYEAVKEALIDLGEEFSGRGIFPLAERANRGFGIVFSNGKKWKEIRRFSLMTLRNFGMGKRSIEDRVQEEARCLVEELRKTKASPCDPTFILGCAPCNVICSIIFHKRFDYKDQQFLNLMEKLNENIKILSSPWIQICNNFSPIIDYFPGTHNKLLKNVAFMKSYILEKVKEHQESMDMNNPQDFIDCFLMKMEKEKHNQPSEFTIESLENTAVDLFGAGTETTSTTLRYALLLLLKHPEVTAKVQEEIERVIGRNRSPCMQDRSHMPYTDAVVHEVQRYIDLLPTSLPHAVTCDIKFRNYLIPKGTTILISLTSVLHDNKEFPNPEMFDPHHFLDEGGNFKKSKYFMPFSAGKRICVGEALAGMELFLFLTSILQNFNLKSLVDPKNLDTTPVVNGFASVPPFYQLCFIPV

Mucolipin-3 = molecular target: T3, Mucolipin-3 (Homo sapiens, UniProt Q8TDD5); experiment: Dose response cell-based high-throughput screening assay for agonists of the transient receptor potential channel ML3 (TRPML3). [Related pubchem assays: 1526, 1424, 1448 ]; type: functional
T3 sequence (Q8TDD5 whole entry): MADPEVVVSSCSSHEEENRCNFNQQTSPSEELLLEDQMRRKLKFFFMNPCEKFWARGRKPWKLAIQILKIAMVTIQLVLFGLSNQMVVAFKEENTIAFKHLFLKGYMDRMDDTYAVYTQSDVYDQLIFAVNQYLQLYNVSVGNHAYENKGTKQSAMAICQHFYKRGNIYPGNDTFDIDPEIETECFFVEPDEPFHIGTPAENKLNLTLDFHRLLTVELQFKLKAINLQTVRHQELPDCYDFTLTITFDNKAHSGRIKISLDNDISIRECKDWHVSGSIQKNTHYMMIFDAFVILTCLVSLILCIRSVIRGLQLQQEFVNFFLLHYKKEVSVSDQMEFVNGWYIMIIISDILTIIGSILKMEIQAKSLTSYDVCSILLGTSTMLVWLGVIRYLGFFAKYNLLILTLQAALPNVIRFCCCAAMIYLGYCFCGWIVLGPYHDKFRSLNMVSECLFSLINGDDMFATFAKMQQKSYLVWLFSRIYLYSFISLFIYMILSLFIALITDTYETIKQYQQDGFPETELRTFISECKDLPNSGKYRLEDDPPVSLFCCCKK

Ion channel NompC = Ion channel NompC (Danio rerio, UniProt Q7T1G6); experiment: Fluorescence counterscreen assay for TRPML3 agonists: dose response cell-based high-throughput screening assay to identify agonists of the transient receptor potential channel N1 (TRPN1). [Related pubchem assays: 1526, 1424, 1448 ]; type: functional
Ion channel NompC, sequence (Q7T1G6 whole entry): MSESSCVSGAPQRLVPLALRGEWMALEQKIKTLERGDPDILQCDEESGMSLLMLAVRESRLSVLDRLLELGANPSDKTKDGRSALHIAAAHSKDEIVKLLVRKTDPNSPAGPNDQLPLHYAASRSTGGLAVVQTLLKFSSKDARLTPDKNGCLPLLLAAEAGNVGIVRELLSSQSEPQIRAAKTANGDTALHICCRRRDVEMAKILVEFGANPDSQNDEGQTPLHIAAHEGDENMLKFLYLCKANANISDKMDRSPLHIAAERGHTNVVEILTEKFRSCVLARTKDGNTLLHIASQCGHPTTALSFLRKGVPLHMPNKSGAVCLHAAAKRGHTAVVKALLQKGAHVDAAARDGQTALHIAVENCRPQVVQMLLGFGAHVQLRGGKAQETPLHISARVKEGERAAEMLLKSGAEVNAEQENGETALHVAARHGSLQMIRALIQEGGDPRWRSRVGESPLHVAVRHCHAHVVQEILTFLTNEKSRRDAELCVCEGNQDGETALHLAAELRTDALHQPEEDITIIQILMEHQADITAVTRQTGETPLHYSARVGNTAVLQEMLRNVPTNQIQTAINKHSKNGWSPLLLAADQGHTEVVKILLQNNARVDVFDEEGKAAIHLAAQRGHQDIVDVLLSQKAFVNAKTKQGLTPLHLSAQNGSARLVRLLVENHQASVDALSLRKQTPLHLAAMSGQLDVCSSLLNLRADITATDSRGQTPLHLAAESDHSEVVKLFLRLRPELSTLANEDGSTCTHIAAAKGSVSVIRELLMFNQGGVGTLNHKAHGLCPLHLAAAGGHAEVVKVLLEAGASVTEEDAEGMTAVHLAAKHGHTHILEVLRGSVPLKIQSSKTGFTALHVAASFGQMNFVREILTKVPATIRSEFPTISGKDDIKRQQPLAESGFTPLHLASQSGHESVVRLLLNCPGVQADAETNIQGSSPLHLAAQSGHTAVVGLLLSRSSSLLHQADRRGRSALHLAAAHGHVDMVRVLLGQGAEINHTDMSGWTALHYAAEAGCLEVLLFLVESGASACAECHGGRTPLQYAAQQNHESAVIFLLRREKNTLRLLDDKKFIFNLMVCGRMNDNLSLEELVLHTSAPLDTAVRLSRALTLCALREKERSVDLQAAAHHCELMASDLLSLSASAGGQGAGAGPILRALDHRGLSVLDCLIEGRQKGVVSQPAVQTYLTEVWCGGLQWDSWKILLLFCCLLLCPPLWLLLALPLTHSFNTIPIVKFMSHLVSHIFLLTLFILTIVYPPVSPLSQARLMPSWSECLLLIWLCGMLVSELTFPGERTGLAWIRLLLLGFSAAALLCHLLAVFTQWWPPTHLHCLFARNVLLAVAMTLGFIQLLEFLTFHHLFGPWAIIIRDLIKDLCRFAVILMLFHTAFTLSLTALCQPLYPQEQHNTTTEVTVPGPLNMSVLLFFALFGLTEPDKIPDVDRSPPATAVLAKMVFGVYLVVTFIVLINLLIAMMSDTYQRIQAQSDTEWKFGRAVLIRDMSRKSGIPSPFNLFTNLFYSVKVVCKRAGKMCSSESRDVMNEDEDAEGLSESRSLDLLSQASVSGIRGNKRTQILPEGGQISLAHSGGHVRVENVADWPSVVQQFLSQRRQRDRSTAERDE

[10] = molecular target: T4, Mannose-6-phosphate isomerase (Homo sapiens, UniProt P34949); experiment: MPI enzyme activity inhibition – biochemical, fluorescence intensity, coupled assay, primary screen (AID 1209)
T4 sequence (P34949 whole entry): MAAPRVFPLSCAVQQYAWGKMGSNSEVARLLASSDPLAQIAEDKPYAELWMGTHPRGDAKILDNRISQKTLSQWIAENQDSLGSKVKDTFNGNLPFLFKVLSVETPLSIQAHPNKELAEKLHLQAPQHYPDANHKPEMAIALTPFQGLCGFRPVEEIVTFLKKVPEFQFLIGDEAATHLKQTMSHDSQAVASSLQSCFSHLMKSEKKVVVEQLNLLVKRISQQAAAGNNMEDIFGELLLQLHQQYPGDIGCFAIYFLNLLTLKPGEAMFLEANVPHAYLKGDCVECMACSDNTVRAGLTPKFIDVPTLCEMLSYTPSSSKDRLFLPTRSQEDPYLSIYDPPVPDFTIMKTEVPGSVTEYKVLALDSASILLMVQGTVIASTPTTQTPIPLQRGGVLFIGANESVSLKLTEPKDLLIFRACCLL

Leucine aminopeptidase = molecular target: T5, Leucine aminopeptidase (Plasmodium falciparum 3D7, UniProt Q8IL11); experiment: P. falciparum M17LAP inhibitors, primary screen, biochemical, fluorogenic H-Leu-NHMec substrate, 1536-well (AID 1619); type: functional
T5 sequence (Q8IL11 whole entry): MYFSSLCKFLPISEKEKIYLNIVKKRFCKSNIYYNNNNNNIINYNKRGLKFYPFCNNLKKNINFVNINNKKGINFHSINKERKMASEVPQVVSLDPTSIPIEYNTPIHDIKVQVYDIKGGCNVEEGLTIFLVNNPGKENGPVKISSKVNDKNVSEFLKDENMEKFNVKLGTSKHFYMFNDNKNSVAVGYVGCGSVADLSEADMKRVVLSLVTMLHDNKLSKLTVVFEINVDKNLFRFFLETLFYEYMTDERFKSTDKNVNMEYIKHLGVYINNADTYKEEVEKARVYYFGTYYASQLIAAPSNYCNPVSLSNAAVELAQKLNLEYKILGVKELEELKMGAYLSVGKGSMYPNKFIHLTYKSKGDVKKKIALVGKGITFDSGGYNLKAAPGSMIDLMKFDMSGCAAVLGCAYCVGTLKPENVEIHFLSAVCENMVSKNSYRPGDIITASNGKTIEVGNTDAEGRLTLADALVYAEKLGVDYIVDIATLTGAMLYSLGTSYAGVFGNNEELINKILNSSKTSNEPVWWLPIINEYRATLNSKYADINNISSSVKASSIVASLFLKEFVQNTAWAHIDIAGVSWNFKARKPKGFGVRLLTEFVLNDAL

[11] = molecular target: T6, RNA-binding protein pos-1 (Caenorhabditis elegans, UniProt G5EF15); experiment: disruptors of C. elegans POS-1 RNA interaction – biochemical, fluorescence polarization, dose response (AID 1964);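 further: purified POS-1 fused to maltose binding protein made in E. coli; potency of compounds blocking POS-1 binding to fluorescent RNA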
T6 sequence (G5EF15 whole entry): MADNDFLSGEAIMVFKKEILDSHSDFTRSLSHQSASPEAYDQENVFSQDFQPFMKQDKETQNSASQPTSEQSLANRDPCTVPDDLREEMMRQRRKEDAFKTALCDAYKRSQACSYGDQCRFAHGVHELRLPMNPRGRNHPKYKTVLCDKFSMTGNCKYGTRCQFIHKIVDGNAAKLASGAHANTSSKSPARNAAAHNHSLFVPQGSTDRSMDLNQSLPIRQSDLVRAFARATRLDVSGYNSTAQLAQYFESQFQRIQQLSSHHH

[12] = molecular target: T7, Zinc finger protein mex-5 (Caenorhabditis elegans, UniProt Q9XUB2); experiment: potency of MEX-5 RNA-binding blockers – biochemical, C. elegans, fluorescence polarization, dose response (AID 1960)
T7 sequence (Q9XUB2 whole entry): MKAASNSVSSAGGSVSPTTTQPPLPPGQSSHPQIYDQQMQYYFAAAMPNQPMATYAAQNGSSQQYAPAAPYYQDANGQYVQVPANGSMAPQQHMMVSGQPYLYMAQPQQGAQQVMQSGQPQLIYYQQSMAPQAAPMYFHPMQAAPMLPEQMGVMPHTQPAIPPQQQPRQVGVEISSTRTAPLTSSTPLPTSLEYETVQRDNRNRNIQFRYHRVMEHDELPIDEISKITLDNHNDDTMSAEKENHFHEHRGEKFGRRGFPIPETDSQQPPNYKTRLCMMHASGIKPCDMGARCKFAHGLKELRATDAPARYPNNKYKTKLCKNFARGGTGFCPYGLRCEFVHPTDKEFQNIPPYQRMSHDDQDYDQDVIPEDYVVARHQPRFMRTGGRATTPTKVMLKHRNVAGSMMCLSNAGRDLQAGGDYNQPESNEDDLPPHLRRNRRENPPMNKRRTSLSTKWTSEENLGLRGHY

Row | IC50 (Estrogen receptor) | Structure (SMILES) | AC50 [5] | AC50 [6] | AC50 [7] | AC50 [8] | AC50 [9] | also measured
1 | > 50 µM (not active) | Cc1nn(Cc2ccccc2)c(C)c1NC(=O)CSc1nnc(-c2cc(Cl)ccc2O)n1C | – | – | – | – | – | –
2 | – | C=CCCC(=O)Nc1ccc(Br)cn1 | – | – | – | – | – | IC50 [3]: > 109 µM (inactive); IC50 [4]: > 83.3 µM (inactive)
3 | – | CC(C)CC#Cc1ccc([C@H]2[C@@H](CO)N3C(=O)CN(C(=O)Cc4ccccc4)C[C@H]23)cc1 | 2.02 µM (active) | 26.3 µM (active) | 0.424 µM (active) | 0.836 µM (active) | 1.09 µM (active) | –
4 | – | CCC(CC)C(=O)/N=c1\c2cnn(-c3ccccc3)c2[nH]c(=O)n1-c1ccccc1 | – | – | – | – | – | Ki (fMet-Leu-Phe receptor): 49.8 µM (inactive); AC50 (Cytochrome P450 2C9): 28.2 µM (inconclusive)
5 | – | CC(C)Oc1ccc(/C=N/NC(=O)C(CSCc2ccccc2)NC(=O)c2ccc([N+](=O)[O-])cc2)cc1 (stereo not given) | – | – | – | – | – | EC50 (Mucolipin-3): 0.342 µM (active); EC50 (Ion channel NompC): > 29.9 µM (not active)
6 | – | Cc1ccc(/C=N/n2c(S)nnc2-c2ccncc2)cc1 | – | – | – | – | – | IC50 [10]: 18.3 µM (active)
7 | 24.7 µM (active) | O=C1C2CC=C(Cl)CC2C(=O)N1CCCCCCN1C(=O)C2CC=C(Cl)CC2C1=O (stereo not given) | – | – | – | – | – | IC50 (Leucine aminopeptidase): 37.2 µM (active); EC50 [11]: 14.4 µM (active); EC50 [12]: 12.2 µM (active)
8 | – | Cc1ccccc1S(=O)(=O)N1CC(=O)N2[C@H](CO)[C@H](c3ccc(C#CCC4CCCC4)cc3)[C@H]2C1 | 1.2 µM (active) | 26.5 µM (active) | 1.9 µM (active) | 0.411 µM (active) | 1.42 µM (active) | –
9 | – | O=S(=O)(c1ccccc1)N1C[C@@H]2N[C@H](C1)[C@H]2c1ccc(-c2ccc(F)cc2)cc1 | 1.27 µM (active) | 14.3 µM (active) | 1.54 µM (active) | 1.47 µM (active) | 1.85 µM (active) | –

Row | Structure (SMILES) | IC50 (Estrogen receptor) | AC50 [5] | AC50 [6] | AC50 [7] | AC50 [8] | AC50 [9] | also measured
10 | Cc1cccc(N2CCN(c3nc4ccccc4n4cnnc34)CC2)c1C | 38.8 µM (not active) | – | – | – | – | – | EC50 [1]: 23.4 µM (active); EC50 [2]: 25.4 µM (active)
